One block for each compound: values may come before it.
Assays:
[1] = test system: nitric oxide synthase (NOS) / spinal NR2B-containing NMDA receptors; settings: rats, cited from earlier work
plasma glutamate = settings: neurosurgical patients, anesthesia; cited from earlier work
blood glutamate levels = settings: rat; cited from earlier work
iNOS = iNOS (Homo sapiens, UniProt P35228); assay: In vitro iNOS inhibition; type: biochemical
[2] = test system: C57 BL/6 mice, controlled cortical impact (CCI) model; assay: Controlled cortical impact (CCI) model in mice, intracranial pressure (ICP); type: in vivo; settings: for therapeutic activity of metabolites of VAS203: mouse, in vivo
Excerpt: The primary objective of this experiment was the characterization of the intracranial pressure (ICP) reduction by VAS3384 in the controlled cortical impact (CCI) model in mice. The secondary objective was characterization of the neuroprotective effect (reduction of the lesion volume) of VAS3384 in the controlled cortical impact model in mice.
• Test compound A • Denomination: VAS 3384 • Active agent: 4-Amino-4-desoxy-7,8-dihydrobiopterin-dihydrochloride, obtained from Schircks Laboratories, Bauma, Switzerland • Detailed composition: VAS 3384 dissolved in sodium phosphate buffer (PBS) pH 7.4 • Formulation method: 15 mg of the test compound (VAS 3384) are dissolved in 500 μl PBS, pH 7.4. The solution is neutralized with 72 μl 1 N NaOH and filled up with 428 μl water (check pH). • Final concentration of active agent: 15 mg/ml • Appearance: yellow, clear solution • Storage (solid test compound): −20° C. • Dose applied: 560 mg/kg or 37.3 ml/kg • Way of administration: intravenous injection/infusion • Negative control • Denomination: sodium phosphate buffer (PBS) • Active agent: none • Detailed composition: Na2HPO4, NaH2PO4, 100 mM pH 7.4 • Formulation method: ready for use • Final concentration of active agent: not applicable • Appearance: colourless, clear solution • Expiration date: 3 months after preparation • Volume applied: 37.3 ml/kg • Way of administration: intravenous injection/infusion Experimental Procedure
The animals (C57 BL/6 mice), under Dormicum/Methidomidin/Fentanyl-narcosis were fixed in a stereo tactical frame and the scalp was opened with a cut along the median. The skull bone
was laid open and disinfected with H2O2. A hole of approx. 1.2 mm diameter was then drilled into the skull (Bregma 0.4-0.4 mm). The ICP-probe was introduced through this hole. The V. jugularis was be laid open and a catheter introduced. This catheter was introduced in the neck subcutaneously and fixed on the cap of the cage with a protective spiral of metal. This setup permitted an infusion in awake animals. The skull was opened above of the right cortex and mechanically traumatized (CCI model). The skullcap was then closed with the removed bone.
Mice 1-9: 10 minutes after the trauma the animals got an intravenous bolus injection of 20 mg/kg VAS 3384 (=1.33 ml/kg) followed by an infusion of 1.5 mg/kg/min (=100 μl/kg/min) VAS 3384 over six hours to maintain the dose. After six hours, after termination of the infusion, and after 24 hours the ICP of the animals was measured. After 24 hours the animals were sacrificed, the brains dissected and the lesion volume determined by Nissl's method.
Mice 10-18: 10 minutes after the trauma the animals received an intravenous bolus injection of 1.33 ml/kg PBS followed by an infusion of 100 μl/kg/min PBS over six hours. After six hours, after the termination of the infusion, and after 24 hours the ICP of the animals was measured.
At the end of the observation period animals were sacrificed by cervical dislocation in deep halothane anaesthesia. The brains were carefully removed, frozen in powdered dry ice, and stored at −20° C. until further use. Ten μm coronal sections were prepared every 500 μm on a cryostat (CryoStar HM 560, Microm, Walldorf, Germany) and stained with cresyl violet. Sections were photographed with a digital camera system. The contusion area, the area of the non-traumatized tissue of the ipsilateral hemisphere, and the area of the contralateral hemisphere were determined on the digitized images with a standard image analysis software (Optimate 6.51, Media Cybernetics, Silver Spring, MD, USA) by an investigator blinded to the treatment of the animals. In order to correct for the swelling of contused tissue, the contusion area was calculated by subtracting the area of the non-traumatized tissue of the ipsilateral hemisphere from the area of the contralateral hemisphere. […]

[3] = Exposure control (pharmacokinetics) in NOSTRA III patients; type: in vivo, human; settings: TBI patients; for mean absolute concentration 12 hours after end of infusion / mean absolute concentration at the end of the infusion: Ronopterin 17 mg/kg infused for 48 hours
Method: An exposure control was performed with samples collected after end of infusion and 12 hours after end of infusion.

[4] = Plasma pharmacokinetics after single rectal administration of VAS203 gel in rabbits; type: in vivo
Method: In this Example, VAS203 was formulated as a gel at a concentration of 450 mg VAS203/ml for single rectal administration in rabbits. This formulation of VAS203 as a gel (450 mg/ml) was filled in 2 ml syringes pact in foil with an oxygen absorber.
Six rabbits were dosed with 1.5 ml of VAS203 gel (corresponding to a dosage of about 200 mg VAS203/kg body weight). Blood collection was carried out at pre-dose, 10 min, 20 min, 40 min, 1 h, 2 h, 3 h, 4 h, 5 h, 6 h, and 20-26 h after rectal administration. The whole blood samples (ca. 1-2 ml sufficient to obtain approx. 0.3 mL EDTA plasma/animal/sampling time), were collected into pre-cooled EDTA vials. To stabilise the blood samples, 1 mg Dithioerythritol (DTE) was added to approx. 1 mL blood. Within 15 minutes of blood collection the samples were centrifuged at 4° C. for 10 minutes. The plasma was transferred to vials and immediately frozen and stored at −80° C. for analysis.
The plasma concentrations (in μg/L) of VAS203, 7,8-Dihydroaminobiopterin (VAS3384, ABH2, the compound of formula (II) as shown in here) and Aminobiopterin (VAS3382, AB) were measured by liquid chromatography mass spectrometry (LC-MS).

[5] = rabbits, single rectal VAS203 gel, about 200 mg/kg

SMILES: O=[N+]([O-])c1cccc2cn[nH]c12 [7-nitroindazole]
- oxaliplatin-induced pain behavior [1]: significantly suppressed

SMILES: FC(F)OC(Cl)C(F)(F)F (stereo not drawn) [Isoflurane]
- plasma glutamate (plasma glutamate): significantly increase

SMILES: COC(=O)[C@@H](N)CCCNC(=N)N[N+](=O)[O-] [L-NAME]
- oxaliplatin-induced pain behavior [1]: significantly suppressed

SMILES: N[C@@H](Cc1cc(I)c(Oc2cc(I)c(O)c(I)c2)c(I)c1)C(=O)O [L-thyroxine]
- blood glutamate levels (blood glutamate levels): increased

SMILES: C[C@@H](CN1CCC(Cc2ccccc2)CC1)[C@@H](O)c1ccc(O)cc1 [Ro25-6981]
- oxaliplatin-increased intensity of NADPH diaphorase staining in the superficial layer of spinal dorsal horn ([1]; intrathecal injection): reversed

- IC50 (iNOS): 12 µM
- potency to inhibit the i-NOS in comparison to VAS203 (iNOS): about ten times less potency
- elimination 12 hours after end of infusion [3]: 56%
- mean absolute concentration 12 hours after end of infusion [3]: 476 ng/mL
- mean absolute concentration at the end of the infusion [3]: 1071 ng/mL
- half-life ([4]; rabbit, in vivo, 200 mg/kg): ~1.33 h
SMILES: CC(O)C(O)C1=Nc2c(N)nc(N)nc2NC1 [VAS3384, 4-Amino-(6R,S)-7,8-dihydro-L-biopterin]
- ICP after 6 hours ([2]; CCI mice, i.v. infusion of 560 mg/kg over 6 h, mean +/- SD, n=9/group, placebo 14.1+/−1.8, p=0.0005): 10.4+/−1.9
- ICP after 24 hours ([2]; CCI mice, i.v. infusion of 560 mg/kg over 6 h, placebo 10.7+/−2.3, non-significant): 10.3+/−1.7
- reduction of the increased ICP compared with the placebo group ([2]; infusion of 560 mg/kg for six hours, starting 10 minutes after CCI): significantly reduction of the increased ICP
- therapeutic activity of metabolites of VAS203 [2]: still active

- mean absolute concentration 12 hours after end of infusion [3]: 37 ng/mL
- mean absolute concentration at the end of the infusion [3]: 52 ng/mL
- elimination half-life [4, 5]: approximately 4 hours
- time to reach plateau of plasma concentration [4, 5]: approx. 50 minutes
SMILES: C[C@H](O)[C@@H](O)c1cnc2nc(N)nc(N)c2n1 [aminobiopterin, Aminobiopterin]
- therapeutic activity of metabolites of VAS203 [2]: no therapeutic activity

SMILES: CC(C)c1cccc(C(C)C)c1O [propofol]
- plasma glutamate (plasma glutamate): significantly increase

Source: patent US12465609B2, “Methods of treating patients suffering from a disease condition or disorder that is associated with an increased glutamate level” (veriNOS operations GmbH, priority 2022, dated 2025)
